Consider 17 compounds from US7022699B2, “Cyclohexenyl phenyl diazepines vasopressin and oxytocin receptor modulators” (Wyeth, priority 2001, dated 2006).

For data set [1], the target named is T1, human oxytocin receptor (Homo sapiens, UniProt P30559).
T1 construct: host or cells: CHO cells, stably transfected (pcDNA3.1 vector); membranes
T1 sequence (P30559 1-389): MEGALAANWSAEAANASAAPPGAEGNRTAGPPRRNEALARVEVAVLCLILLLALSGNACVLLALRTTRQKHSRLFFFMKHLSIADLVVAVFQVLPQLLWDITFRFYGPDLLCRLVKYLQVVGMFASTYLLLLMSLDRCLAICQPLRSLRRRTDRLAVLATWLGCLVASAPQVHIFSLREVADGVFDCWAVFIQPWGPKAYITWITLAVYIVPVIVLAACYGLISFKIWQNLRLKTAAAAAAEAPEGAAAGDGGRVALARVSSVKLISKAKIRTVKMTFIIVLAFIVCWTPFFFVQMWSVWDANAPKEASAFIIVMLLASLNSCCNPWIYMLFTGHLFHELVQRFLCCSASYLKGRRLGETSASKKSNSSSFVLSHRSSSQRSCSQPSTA
In words: Oxytocin binding in CHO cell membranes expressing human oxytocin receptors ([3H]oxytocin). As to conditions: for inhibition at 0.1 µM: 100 nM, values without parentheses, read-out: OT % inhibition @ 100 nM; for IC50: values in parentheses, read-out: OT (IC50). The text has this:
Oxytocin Binding in Chinese Hamster Ovary Cell Membranes Expressing Human Oxytocin Receptors
Chinese Hamster Ovary (CHO) cells stably transfected with the human oxytocin (cf. Tanizawa et al., U.S. Pat. No. 5,466,584 (1995) to Rohto Pharmaceutical Co. Ltd., Osaka, Japan) were obtained from M. Thibonnier, Case Western Reserve University School of Medicine, Cleveland, Ohio. A. Passaging and Amplification of Cells: CHO cells transfected with the human oxytocin receptors obtained from M. Thibonnier (pcDNA3.1 vector) are allowed to grow to confluency (approx. >90%) in T-150 flasks under sterile conditions, in a cell culture medium of F-12 Nutrient Mixture (HAM) with L-glutamine (Gibco Cat. #11765-054) containing 15 mM HEPES (Gibco Cat. #15630-080), 1% antibiotic/antimycotic (add 5 mL 100×, Gibco Cat. #15240-062 per 500 mL F-12), 400 μg/mL of Geneticin (add 4 mL of 50 mg/mL per 500 mL F-12) and 10% Fetal Bovine Serum (Qualified, heat inactivated, Gibco Cat. #16140-063). The medium is removed by aspiration and the cells are washed with 10 mL of Hank's Balanced Salt solution (Gibco Cat. #14175-095). The salt solution is removed by aspiration and the cells trypsinized with 5 mL of trypsin-EDTA (0.05% trypsin, 0.53 mM EDTA-4Na, Gibco Cat. #25300-070) for 1 min. The trypsin is removed by aspiration and the cells dislodged by tapping. Cell Culture medium (e.g. 30 mL for 1:30 split) is immediately added and mixed well to inactivate trypsin. 1 mL of detached cells is added to new culture flasks containing fresh Cell Culture medium (e.g. into 25 mL per T-150 flask), and mixed gently. The cells are incubated at 37° C. in 5% CO2. The medium is changed at 3 to 4 days interval (or as appropriate). The cells grow to confluency (approx. >75%–95%) within 7–8 days. All steps are done under sterile conditions. B. Membrane Preparation: The cells are washed twice gently with Hank's Balanced Salt solution (e.g., use 10 mL per T-150 flask). The excess is removed and the cells bathed for 15–30 min. in an enzyme-free Cell Dissociation Buffer (e.g., use 8 mL Hank's Based, Gibco Cat. #13150-016 per T-150 flask) until cells are loosened. The contents are transferred to centrifuge tubes (50 mL size) kept in ice bath. All subsequent steps are done at 4° C. The tubes are centrifuged at 300×g for 15 min (1380 rpm on SORVAL, Model RT6000D, using rotor for 50 mL tubes). The supernatant is discarded and the cells suspended in homogenizing buffer (10 mM Tris-HCl containing 0.25 M sucrose and 1 mM EDTA, pH 7.4) ensuring that the volume of the buffer is about ten times the volume of the cell pellet. The cells are pooled into a centrifuge tube (50 mL) and homogenized with Polytron at setting 6 for 10 sec. The homogenate is transferred into a Potter-Elvjehm homogenizer and homogenized with 3 strokes. The homogenate is centrifuged at 1500×g for 10 min at 4° C. (3100 rpm using SORVAL, model RT6000D, using rotor for 50 mL tubes). The pellet. is discarded. The supernatant is centrifuged at 100,000×g for 60 min. at 4° C. (Beckman L8-80M ultracentrifuge; spin at 37,500 rpm with rotor type 70 Ti for 50 mL tubes; 38,000 rpm with type 80Ti for 15 mL tubes; or 35,800 rpm with rotor type 45Ti). The supernantant is discarded and the pellet suspended in 3 to 4 mL of Tris buffer (50 mM TRIS-HCl, pH 7.4). The protein content is estimated by the Bradford or Lowry method. The volume of the membrane suspension is adjusted with the membrane buffer (50 mM Tris-HCl containing 0.1% BSA and 0.1 mM PMSF) to give 3.0 mg/mL (or as appropriate) of protein. The membranes are aliquoted and stored at −70° C. C. Radioligand Binding Assay: In wells of a 96-well format microliter plate, is added 90, 110 or 130 μL (to make up a final volume of 200 μL) of assay buffer containing 50 mM of Tris-HCl (pH 7.4), […], 1 mg % aprotinin, 1 mg % leupeptin, 2 mg % 1,10-phenanthroline, 10 mg % trypsin inhibitor, and 0.1 mM PMSF. The inhibitors are added on the day of the experiment. […]

Turning to `COc1cc(C2=CCCc3ccccc32)c(Cl)cc1C(=O)N1Cc2cccn2Cc2ccccc21` [Example 8, 10-[5-Chloro-4-(3,4-dihydro-naphthalen-1-yl)-2-methoxybenzoyl]-10,11-dihydro-5H-pyrrolo[2,1-c][1,4]benzodiazepine], the melting point – broadly, the temperature, or range, at which the solid turns liquid – fell in the range of 209 to 210 °C. Also, in data set [1], the inhibition (commonly the share of the control response that was lost under treatment) at 0.1 µM came out at 93%.
Taken in the same sequence, the figures for `O=C(c1ccc(C2=CCCc3ccccc32)cc1Cl)N1Cc2cccn2Cc2ccccc21` [Example 11, (10,11-Dihydro-5H-pyrrolo[2,1-c][1,4]benzodiazepin-10-yl)-[2-chloro-4-(3,4-dihydro-naphthalen-1-yl)-phenyl]-methanone] were 174 to 176 °C and 65%.
The compound `O=C(c1ccc(C2=CCCCC2)cc1)N1Cc2cccn2Cc2ccccc21` [Example 15, (10,11-Dihydro-5H-pyrrolo[2,1-c][1,4]benzodiazepin-10-yl)-(4-cyclohex-1-en-1-yl-phenyl)-methanone] displayed a melting point of 156 °C. Besides, the half-maximal inhibitory concentration (IC50) (usually the concentration that gives 50% inhibition) in data set [1] was found to be 48.9 nM.
Consider `CC1CCCC=C1c1ccc(C(=O)N2Cc3cccn3Cc3ccccc32)cc1` (stereo not shown) [Example 16, (10,11-Dihydro-5H-pyrrolo[2,1-c][1,4]benzodiazepin-10-yl)-[4-(6-methyl-cyclohex-1-en-1-yl)-phenyl]-methanone], for which the melting point fell in the range of 108 to 109 °C. For the same compound, the IC50 in data set [1] is 21.8 nM.
The compound `CC1(C)CCCC=C1c1ccc(C(=O)N2Cc3cccn3Cc3ccccc32)cc1` [Example 17, (10,11-Dihydro-5H-pyrrolo[2,1-c][1,4]benzodiazepin-10-yl)-[4-(6,6-dimethyl-cyclohex-1-en-1-yl)-phenyl]-methanone] returned a melting point of 118 °C. The inhibition at 0.1 µM in data set [1] was 76%.
Taken in the same sequence, the figures for `O=C(c1ccc(C2=CCCc3ccccc32)cc1)N1Cc2cccn2Cc2ccccc21` [Example 18, (10,11-Dihydro-5H-pyrrolo[2,1-c][1,4]benzodiazepin-10-yl)-[4-(3,4-dihydro-naphthalen-1-yl)-phenyl]-methanone] were 166 °C and 80%.
The like results for `CC1=C(c2ccc(C(=O)N3Cc4cccn4Cc4ccccc43)cc2)C(C)CCC1` (stereo not shown) [Example 19, (10,11-Dihydro-5H-pyrrolo[2,1-c][1,4]benzodiazepin-10-yl)-[4-(2,6-dimethyl-cyclohex-1-en-1-yl)-phenyl]-methanone] were, in that order, 153 to 154 °C and 47%.
Taken in the same sequence, the figures for `CC1(C)C2CC=C(c3ccc(C(=O)N4Cc5cccn5Cc5ccccc54)cc3)C1C2` (stereo not shown) [Example 22, (10,11-Dihydro-5H-pyrrolo[2,1-c][1,4]benzodiazepin-10-yl)-[4-(6,6-dimethyl-bicyclo[3.1.1]hept-2-en-2-yl)-phenyl]-methanone] were 118 to 119 °C and 32%.
Take `CC1(C)C=C(c2ccc(C(=O)N3Cc4cccn4Cc4ccccc43)cc2)CC(C)(C)C1` [Example 23, (10,11-Dihydro-5H-pyrrolo[2,1-c][1,4]benzodiazepin-10-yl)-[4-(3,3,5,5-tetramethyl-cyclohex-1-en-1-yl)-phenyl]-methanone]: the melting point was 142 to 143 °C. In addition, the inhibition at 0.1 µM in data set [1] was 7%.
For the compound `O=C1C=C(c2ccc(C(=O)N3Cc4cccn4Cc4ccccc43)cc2)CCC1` [Example 24, 3-[4-(10,11-Dihydro-5H-pyrrolo[2,1-c][1,4]benzodiazepine-10-carbonyl)-phenyl]-cyclohex-2-en-1-one], the melting point was in the range of 205 to 207 °C. In data set [1], the inhibition at 0.1 µM is 70%.
Take `CC1=C(c2ccc(C(=O)N3Cc4cccn4Cc4ccccc43)cc2)CCCC1=O` [Example 26, 3-[4-(10,11-Dihydro-5H-pyrrolo[2,1-c][1,4]benzodiazepine-10-carbonyl)-phenyl]-2-methyl-cyclohex-2-en-1-one]: the melting point fell in the range of 95 to 97 °C. For the same compound, the inhibition at 0.1 µM in data set [1] came to 80%.
The like results for `Cc1cc(C(=O)N2Cc3cccn3Cc3ccccc32)ccc1C1=CCCCC1C` (stereo not shown) [Example 29, (10,11-Dihydro-5H-pyrrolo[2,1-c][1,4]benzodiazepin-10-yl)-[3-methyl-4-(6-methyl-cyclohex-1-en-1-yl)-phenyl]-methanone] were, in that order, 132 to 133 °C and 81%.
Taken in the same sequence, the figures for `Cc1cc(C(=O)N2Cc3cccn3Cc3ccccc32)ccc1C1=CCCCC1(C)C` [Example 30, (10,11-Dihydro-5H-pyrrolo[2,1-c][1,4]benzodiazepin-10-yl)-[4-(6,6-dimethyl-cyclohex-1-en-1-yl)-3-methyl-phenyl]-methanone] were 131 °C and 67%.
The like results for `CC1=C(c2ccc(C(=O)N3Cc4cccn4Cc4ccccc43)cc2C)C(C)CCC1` (stereo not shown) [Example 33, (10,11-Dihydro-5H-pyrrolo[2,1-c][1,4]benzodiazepin-10-yl)-[4-(2,6-dimethyl-cyclohex-1-en-1-yl)-3-methyl-phenyl]-methanone] were, in that order, 133 to 135 °C and 56%.
`Cc1cc(C(=O)N2Cc3cccn3Cc3ccccc32)ccc1C1=CCCCC1C(C)(C)C` (stereo not shown) [Example 34, (10,11-Dihydro-5H-pyrrolo[2,1-c][1,4]benzodiazepin-10-yl)-[4-(6-tert-butyl-cyclohex-1-en-1-yl)-3-methyl-phenyl]-methanone] had a melting point of 127 to 129 °C. Moreover, the inhibition at 0.1 µM in data set [1] stood at 20%.
In turn, `Cc1cc(C(=O)N2Cc3cccn3Cc3ccccc32)ccc1C1=CCC2CCC1C2` (stereo not shown) [Example 35, (10,11-Dihydro-5H-pyrrolo[2,1-c][1,4]benzodiazepin-10-yl)-(4-bicyclo[3.2.1]oct-2-en-2-yl-3-methyl-phenyl)-methanone] came in with a melting point of 168 to 169 °C. Also, the inhibition at 0.1 µM in data set [1] stood at 48%.
Consider `Cc1cc(C(=O)N2Cc3cccn3Cc3ccccc32)ccc1C1=CCC2CC1C2(C)C` (stereo not shown) [Example 36, (10,11-Dihydro-5H-pyrrolo[2,1-c][1,4]benzodiazepin-10-yl)-[4-(6,6-dimethyl-bicyclo[3.1.1]hept-2-en-2-yl)-3-methyl-phenyl]-methanone], for which the melting point stood at 187 °C. Moreover, the inhibition at 0.1 µM in data set [1] came to 14%.
